Key:
γδ T cells = assay: Stimulation of γδ T cells / γδ T cell hybridomas in vitro; type: cell-based; details: for stimulation of γδ T cell hybridomas: phospholipids tested by the inventors
αβ T cell hybridomas = assay: Stimulation of αβ T cell hybridomas in vitro; type: cell-based

Substance | stimulation of γδ T cell hybridomas (γδ T cells) | stimulation of αβ T cell hybridomas (αβ T cell hybridomas) | stimulation of γδ T cells by peptides (γδ T cells)
Cardiolipin | selectively stimulates γδ T cell hybridomas | not αβ T cell hybridomas | –
FALQLEL [SEQ ID NO:1] | – | – | stimulatory for γδ T cells
FGLQLEL (listed as Mycobacterium leprae) [SEQ ID NO:2, peptide from mycobacterial HSP-60 protein (from M. leprae)] | – | – | stimulatory for γδ T cells
phosphatidyl-glycerol | weakly stimulatory | – | –

From patent publication US7582300B2, “Modulation of gamma delta T cells to regulate airway hyperresponsiveness” (National Jewish Health, priority 1999, dated 2009)
